Laboratory results published in US4242262A, “9-Nitromethyldeoxyclavulanic acid derivatives preparation and compositions” (Beecham Group Limited, priority 1977, dated 1980).

Legend:
Kleb. E 70 = test: MIC of ampicillin alone or with compound of the Example, Kleb. E 70; format: cell-based
Proteus C 889 = test: MIC of ampicillin alone or with compound of the Example, Proteus C 889; format: cell-based
[1] = table 2 (no quantity or unit in head), Ampicillin alone

Question: What does the source list for `CC1(C)S[C@@H]2[C@H](NC(=O)[C@H](N)c3ccccc3)C(=O)N2[C@H]1C(=O)O` [Ampicillin]?
Answer: MIC (Kleb. E 70; table 1, Ampicillin alone): > 500 µg/mL; MIC (Kleb. E 70; [1]): 22 500; MIC (Proteus C 889; table 1, Ampicillin alone): > 500 µg/mL; MIC (Proteus C 889; [1]): > 500 µg/mL
